Experimental findings from patent US11096985B2, “Antimicrobial peptides, their variants and uses” (priority 2015, dated 2021) are described below.

The test system of data set [1] is Staphylococcus aureus (ATCC 25923). The format is cell-based. The conditions noted are these: ATCC 25923. The protocol: (§1) Minimum inhibition concentrations (MICs) were determined against Escherichia coli (ATCC 25922), Staphylococcus aureus (ATCC 25923), Klebsiella pneumoniae (ATCC 10031) and Pseudomonas aeruginosa (ATCC 27853). Also clinical strains of E. coli, K. pneumoniae, E. cloacae, P. aeruginosa, Serratia marcescens, Proteus mirabilis, S. pneumoniae, Acinetobacter baumannii, A. johnsonii and S. aureus were used for MICs assays. Additionally, clinical strains of yeast including Candida albicans, C. glabrata, C. parapsilosis and C. quillermondiae were used. The susceptibility of these microorganisms to Chain peptides were determined using micro broth dilution assay. Colonies of the respective microorganism from Muller Hinton (MH) agar plates incubated overnight were suspended in MH broth media and final concentration of microorganism was adjusted to 5.0×10^5 cfu/ml. An aliquot of 10 μl of each Chain peptide, or gentamicin, tetracycline as reference antibiotics were added in differing concentrations along with 90 μl of bacterial suspension to 96 well polypropylene plates and incubated at 37° C. for 20 to 24 hours. Concentrations of Chain peptides and reference antibiotics ranged from 0.125 to 128 μg/ml and the MICs were recorded as the lowest concentration with no visual growth of bacteria. Similarly, antifungal MICs were tested in Potato dextrose broth.

Data set [2] concerns Klebsiella pneumoniae (ATCC 10031). The class given is cell-based. The conditions noted are these: ATCC 10031. The method, then:
as §1

Data set [3] has as its system Pseudomonas aeruginosa (ATCC 27853). The class given is cell-based. The conditions noted are these: ATCC 27853. The method, then: as §1
In data set [4] the test system is Escherichia coli (ATCC 25922). The class given is cell-based. As to conditions: ATCC 25922. The protocol:
as §1

The conditions of data set [5]: pH 4-9, RDA.
Protocol: (§4) Thermal stability was evaluated by diluting peptides to the concentration of 2 mg/ml in PBS buffer (pH 7.4) and incubating at different temperatures, such as +4° C., 25° C. (RT), 37° C. and 45° C., peptides stored at −20° C. were used as control. […] Peptides were also tested by diluting them at different pH values starting from pH 4 to 9. The effect of NaCl on the antimicrobial activity was tested by adding different concentrations (50, 100 and 200 mM) of NaCl to MH medium and the minimum inhibitory concentrations were tested against 4 ATCC bacterial strains.
For a further data set, the system named is 4 ATCC bacterial strains. The experiment in a line: Effect of NaCl on MIC. The conditions noted are these: 200 mM NaCl in MH medium. The format is cell-based.
The conditions of data set [6]: +4, 25, 37 and 45° C., 14 days, PBS pH 7.4, RDA with 20 μg.
Protocol: as §4
Data set [7] deals with gram positive and negative bacteria. The experiment in a line: MIC by micro broth dilution, summary over the strains tested. The format is cell-based. The protocol:
as §1

Data set [8] deals with Penicillium chrysogenum (DSM 1075). The experiment in a line: Radial diffusion assay, antifungal, P. chrysogenum. The format is cell-based. As to conditions: 20 μg. The protocol:
(§2) The radial diffusion assay (RDA) was carried out as described by Andersen et al. (2010). Briefly, 30 ml of 1/10 Muller-Hinton broth (MHB) supplemented with 1% agarose and 5.0×10^5 CFU/ml S. aureus or E. coli or K. pneumoniae, P. aeruginosa cells was poured into a single-well omnitray (Nunc) and overlaid with a TSP 96-well plate. One hundred μg of each synthesized peptide was tested. The peptides were also tested against Fusarium oxysporum and Verticillium dahliae, for which 1/3 potato dextrose agarose was used. To test the synergistic effect of peptides, each peptide was mixed in equimolar concentrations. Mix1 (met1-12), Mix2 (met3, 4 and 5), Mix3 (met 8, 9 and 10), Mix 4 (met11, 12) and Mix5 (8, 9, 10, 11, 12) were prepared and tested against E. coli and S. aureus. Gentamicin and vancomycin were included as positive controls for bacteria and amphotericin B was used as the control for fungi.
(§3) By using rational design techniques, we have designed variants of peptides by incorporating or replacing various amino acids in the original peptides. Thus, we have designed and modified Chain 100, Chain 200 and Chain 300 with tryptophan (W), arginine (R) and lysine (K) at various positions to improve antimicrobial activity (FIGS. 4a-c and 5a-c). In some peptides we have also used other amino acids such as Leucine (L), Cysteine (C), Isoleucine (I), Phenylalanine (F) and Alanine (A). For synthesis, 32 variants and 3 original peptides were selected based on the various parameters such as positive charge, aliphatic index and instability index. Peptides variants were tested by using radial diffusion assay against Escherichia coli (ATCC 25922), Staphylococcus aureus (ATCC 25923), Klebsiella pneumoniae (ATCC 10031) and Pseudomonas aeruginosa (ATCC 27853) (FIGS. 6a-c). The zone of inhibition ranged between 10-18 mm for Escherichia coli and Staphylococcus aureus, 6-18 mm & 8-18 mm for Pseudomonas aeruginosa and Klebsiella pneumonia respectively (Table 2). For Gentamicin it was between 22-24 mm. Antifungal activity was tested for promising antibacterial peptides (Chains 104, 105, 109, 201, 204, 306, 307, 308, 310) against Aspergillus flavus (DSM 1959) and Penicillium chrysogenum (DSM 1075). All these peptides has activity at a concentration of 20 μg, Amphotericin B was used as a positive control at 20 μg (FIG. 7).

The test system of data set [9] is Aspergillus flavus (DSM 1959). The experiment in a line: Radial diffusion assay, antifungal, A. flavus. The conditions noted are these: 20 μg. The class given is cell-based. The protocol: as §2, §3
The next data set has as its system human erythrocytes. The format is cell-based. The protocol:
In hemolysis assays, the ability of peptides at 128 μg/ml concentration to lyse human erythrocytes to release hemoglobin was measured. The peptides described here preferably have low hemolytic activity (0.2 to 3.8% hemolysis) in mammal body. […] These peptides are useful as antimicrobial drugs as they show little or no side effects at concentrations needed to kill bacteria.
Minimum inhibition concentrations (MICs) were tested by microbroth dilution method and Chain 104, 105 and 109 inhibited the growth of Escherichia coli (ATCC 25922), Staphylococcus aureus (ATCC 25923), Klebsiella pneumoniae (ATCC 10031) and Pseudomonas aeruginosa (ATCC 27853) between 1-8 μg/ml respectively (Tables 3a, 3b and 3c). The membranolytic activities of the peptides were tested by measuring the release of hemoglobin from erythrocytes of fresh blood donated by voluntiers. Hemoglobin levels were determined spectrometrically by taking OD at 540 nm by following the protocol of Schmidtchen et al., 2011.

The next data set relates to E. coli. The experiment in a line: Transmission electron microscopy of treated E. coli. The conditions noted are these: 10 μg/ml, 37° C., 1 h. The class given is cell-based, Escherichia coli. The protocol:
E. coli and S. aureus were grown to mid-exponential phase and diluted in Muller Hinton broth (MHB) medium to a cell density of 0.1 by taking absorbance at 600 nm and incubated at 37° C. for 1 h with 10 μg/ml Chain peptides. After incubation, an equal volume of 2% glutaraldehyde in 0.1 M phosphate buffer was added and the cells were pelleted by centrifugation at 5000 rpm for 2 minutes, and the cell pellet was fixed with 1% glutaraldehyde in 0.1 M phosphate. Cells were post-fixed with osmium tetroxide, dehydrated using increasing concentrations of acetone or alcohol, and embedded in plastic resin (Epon). Ultrathin sections (70-80 nm) were post-stained with uranyl acetate and lead citrate before observation with TEM. Microscopy was performed with a Tecnai G2 Spirit 120 kV TEM with Veleta and Quemesa CCD cameras.

In brackets after ≈: the same amount, converted by molar mass. Entries after “also recorded” stand apart in the source; their conditions may differ. Where a SMILES comes first, the peptide text is derived from it.

Protocol for 4 ATCC bacterial strains: as §4

For `CC[C@H](C)[C@H](NC(=O)[C@H](CCCCN)NC(=O)[C@H](CCCNC(=N)N)NC(=O)[C@H](Cc1c[nH]c2ccccc12)NC(=O)[C@H](CCCNC(=N)N)NC(=O)[C@@H](NC(=O)[C@@H](NC(=O)[C@H](CCCNC(=N)N)NC(=O)[C@@H](N)Cc1c[nH]c2ccccc12)[C@@H](C)CC)C(C)C)C(=O)N[C@@H](CCCCN)C(=O)N[C@@H](CCCNC(=N)N)C(=O)O` [Chain209] (H-WRIVRWRKIKR-OH; N-terminus and C-terminus assumed), the “Minimum inhibitory concentration, Staphylococcus aureus (ATCC 25923)” value in data set [1] was over 128 µg/mL. Further, the “Minimum inhibitory concentration, Klebsiella pneumoniae (ATCC 10031)” value in data set [2] was over 128 µg/mL. In addition, in data set [3], the “Minimum inhibitory concentration, Pseudomonas aeruginosa (ATCC 27853)” value was over 128 µg/mL. In addition, the “Minimum inhibitory concentration, Escherichia coli (ATCC 25922)” value in data set [4] came out at 64 µg/mL (≈ 40.1 µM).
`CC(C)C[C@H](NC(=O)[C@H](CCCNC(=N)N)NC(=O)[C@H](Cc1c[nH]c2ccccc12)NC(=O)[C@H](CCCNC(=N)N)NC(=O)[C@H](CCCCN)NC(=O)[C@H](CC(C)C)NC(=O)[C@@H](N)CCCNC(=N)N)C(=O)N[C@@H](Cc1ccccc1)C(=O)N[C@@H](CCCNC(=N)N)C(=O)N[C@@H](CCCCN)C(=O)N[C@@H](CCCNC(=N)N)C(=O)O` [Chain306] (H-RLKRWRLFRKR-OH; N-terminus and C-terminus assumed): in data set [5], the “pH stability (zone of inhibition)” value was “not hindered by pH”. The “increase in MIC values with NaCl” value with 4 ATCC bacterial strains is 2 fold. Besides, the “thermostability (antibacterial activity kept after incubation)” value in data set [6] is “not hindered by pH or temperature even upto 45 °C for over 14 days”. Also, the “activity against the four ATCC strains” value in data set [7] is listed as “very active”. Moreover, the “antifungal activity against Penicillium chrysogenum” value in [8] was “has activity; also recorded: particularly active”. The “antifungal activity against Aspergillus flavus” value in data set [9] is given as “has activity; also recorded: particularly active”.
As to `CC(C)C[C@H](NC(=O)[C@H](CC(C)C)NC(=O)[C@H](Cc1ccccc1)NC(=O)[C@H](Cc1c[nH]c2ccccc12)NC(=O)[C@H](CCCCN)NC(=O)[C@H](CC(C)C)NC(=O)[C@@H](N)CCCNC(=N)N)C(=O)N[C@@H](Cc1ccccc1)C(=O)N[C@@H](CCCNC(=N)N)C(=O)N[C@@H](CCCCN)C(=O)N[C@@H](CCCNC(=N)N)C(=O)O` [Chain308] (H-RLKWFLLFRKR-OH; N-terminus and C-terminus assumed), in the data set with human erythrocytes, the “side effects to humans as tested by hemolysis assay” value is listed as “little side effects”. Also, the “pH stability (zone of inhibition)” value in data set [5] is “not hindered by pH”. Also, the “increase in MIC values with NaCl” value in the data set on 4 ATCC bacterial strains is reported as 2 fold. Moreover, the “thermostability (antibacterial activity kept after incubation)” value in [6] is “not hindered by pH or temperature even upto 45 °C for over 14 days”. In data set [7], the “activity against the four ATCC strains” value is recorded as “very active”. Also, the “TEM observation of E. coli cells” value with E. coli was “almost all E. coli cells had lost their rod-shaped structural integrity”. Further, the “antifungal activity against Penicillium chrysogenum” value in data set [8] is on record as “has activity; also recorded: particularly active”. Further, the “antifungal activity against Aspergillus flavus” value in data set [9] is “has activity; also recorded: particularly active”.
